From article PMC8964799, “Inhibition of triple negative breast cancer-associated inflammation, tumor growth and brain colonization by targeting monoacylglycerol lipase” (Scientific Reports, 2022)

Tests used:
[1] = molecular target: T1, human monoacylglycerol lipase (hMAGL) (Homo sapiens, UniProt Q99685); test: target-based real-time 1H NMR (chemical shift perturbation, covalent adduct formation and reactivation; residence time); type: binding
T1 construct: gene MGLL; highly purified recombinant hMAGL
T1 sequence (Q99685 1-303): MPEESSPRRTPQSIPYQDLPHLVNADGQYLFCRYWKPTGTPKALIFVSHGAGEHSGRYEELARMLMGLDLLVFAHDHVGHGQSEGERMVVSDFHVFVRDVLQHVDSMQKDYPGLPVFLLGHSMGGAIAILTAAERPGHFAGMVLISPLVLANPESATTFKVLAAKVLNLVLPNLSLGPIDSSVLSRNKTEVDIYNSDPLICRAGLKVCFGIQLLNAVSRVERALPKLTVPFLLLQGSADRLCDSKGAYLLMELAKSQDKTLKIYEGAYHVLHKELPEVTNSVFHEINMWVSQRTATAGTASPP

[2] = molecular target: T1, human monoacylglycerol lipase (hMAGL); test: target-based real-time 1H NMR (chemical shift perturbation, covalent adduct formation and reactivation; residence time […] h); IC50 on recombinant hMAGL also printed; type: biochemical; settings: cited from earlier work

Substance	target-based real-time 1H NMR (chemical shift perturbation, covalent adduct form) [1] [h]	IC50 [2] [nM]
AM4301	1.4	
AM9928		8.9
